Our source for the IC50 values is ChEMBL document CHEMBL1144969, “Structure-based design of thioether-bridged cyclic phosphopeptides binding to Grb2-SH2 domain” (Bioorg Med Chem Lett, 2003).

pIC50: −log10 of the molar value. Starred links: 1 amine or outer side, 2 acyl side, 3 side chain; linkers in the order of their positions; H or OH if unused. Positions of bridges follow the written chain, without caps; N, C: chain ends. Non-standard residues stand in square brackets, D forms with d. Residues, ends and D or L forms follow the SMILES beside them. pY = N[C@@H](Cc1ccc(OP(=O)(O)O)cc1)C(=O)O; tBuAla = CC(C)(C)C[C@H](N)C(=O)O; X1 = O=C(C[*:2])NCCC(=O)[*:1]; hCys = N[C@@H](CCS)C(=O)O; Ac6c = NC1(C(=O)O)CCCCC1

For the test, the target named is Growth factor receptor-bound protein 2 (Homo sapiens, UniProt P62993). Briefly: Inhibition of Growth factor receptor-bound protein 2 (Grb2) SH2 domain binding by ELISA. For orientation: ELISA stands for enzyme-linked immunosorbent assay.
Sequence of Growth factor receptor-bound protein 2 (P62993 whole entry, the tested form may be a part): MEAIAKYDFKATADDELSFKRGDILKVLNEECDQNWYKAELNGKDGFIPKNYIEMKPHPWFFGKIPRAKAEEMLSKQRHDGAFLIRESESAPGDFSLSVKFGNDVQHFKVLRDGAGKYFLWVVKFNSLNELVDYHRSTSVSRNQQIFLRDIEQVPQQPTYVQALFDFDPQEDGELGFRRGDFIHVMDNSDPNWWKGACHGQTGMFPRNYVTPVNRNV
In the case of `CSCC[C@@H]1NC(=O)CNC(=O)[C@H](C(C)C)NC(=O)[C@H](CC(N)=O)NC(=O)[C@H](CCC(=O)O)NC(=O)[C@H](Cc2ccc(OP(=O)(O)O)cc2)NC(=O)[C@H](CC(C)C)NC(=O)[C@@H]2CCCN2C(=O)CSC[C@@H](C(N)=O)NC(=O)[C@H](Cc2ccc(O)cc2)NC1=O` ({CH2CO}-PL[pY]ENVGMYC-NH2; thioether N-10), the pIC50 (usually −log10 of the IC50, conventionally taken in molar units) was 7.12.

In turn, `CC(C)C[C@@H]1NC(=O)[C@H](C)NC(=O)CSC[C@@H](C(N)=O)NC(=O)[C@H](Cc2ccc(O)cc2)NC(=O)[C@H](CC(C)(C)C)NC(=O)CNC(=O)[C@H](C(C)C)NC(=O)[C@H](CC(N)=O)NC(=O)[C@H](CCC(=O)O)NC(=O)[C@H](Cc2ccc(OP(=O)(O)O)cc2)NC1=O` ({CH2CO}-AL[pY]ENVG[tBuAla]YC-NH2; thioether N-10) had a pIC50 of 7.84.

Compound `CSCC[C@@H]1NC(=O)CNC(=O)[C@H](C(C)C)NC(=O)[C@H](CC(N)=O)NC(=O)[C@H](CCC(=O)O)NC(=O)[C@H](Cc2ccc(OP(=O)(O)O)cc2)NC(=O)[C@H](CC(C)C)NC(=O)[C@H](CCC(=O)O)NC(=O)CSC[C@@H](C(N)=O)NC(=O)[C@H](Cc2ccc(O)cc2)NC1=O` ({CH2CO}-EL[pY]ENVGMYC-NH2; thioether N-10) gave a pIC50 of 6.86.

Compound `CC(C)[C@@H]1NC(=O)[C@H](CC(N)=O)NC(=O)C2(CCCCC2)NC(=O)[C@H](Cc2ccc(OP(=O)(O)O)cc2)NC(=O)[C@H](Cc2ccccc2)NC(=O)[C@H](C)NC(=O)CSC[C@@H](C(N)=O)NC(=O)[C@H](Cc2ccc(O)cc2)NC(=O)[C@H](CC(C)(C)C)NC(=O)CNC1=O` ({CH2CO}-AF[pY][Ac6c]NVG[tBuAla]YC-NH2; thioether N-10) showed a pIC50 of 8.77.

Turning to `CSCC[C@@H]1NC(=O)CNC(=O)[C@H](C(C)C)NC(=O)[C@H](CC(N)=O)NC(=O)[C@H](CCC(=O)O)NC(=O)[C@H](Cc2ccc(OP(=O)(O)O)cc2)NC(=O)[C@H](CC(C)C)NC(=O)[C@H](C)NC(=O)CSCC[C@@H](C(N)=O)NC(=O)[C@H](Cc2ccc(O)cc2)NC1=O` ({CH2CO}-AL[pY]ENVGMY[hCys]-NH2; thioether N-10), the pIC50 was 7.26.

`CSCC[C@@H]1NC(=O)CNC(=O)[C@H](C(C)C)NC(=O)[C@H](CC(N)=O)NC(=O)[C@H](CCC(=O)O)NC(=O)[C@H](Cc2ccc(OP(=O)(O)O)cc2)NC(=O)[C@H](CC(C)C)NC(=O)[C@H](C)NC(=O)CSC[C@@H](C(N)=O)NC(=O)[C@H](Cc2ccc(O)cc2)NC1=O` ({CH2CO}-AL[pY]ENVGMYC-NH2; thioether N-10): the pIC50 was 7.60.

The compound `CC(C)C[C@@H]1NC(=O)[C@@H]2CCCN2C(=O)CSC[C@@H](C(N)=O)NC(=O)[C@H](Cc2ccc(O)cc2)NC(=O)[C@H](CC(C)(C)C)NC(=O)CNC(=O)[C@H](C(C)C)NC(=O)[C@H](CC(N)=O)NC(=O)C2(CCCCC2)NC(=O)[C@H](Cc2ccc(OP(=O)(O)O)cc2)NC1=O` ({CH2CO}-PL[pY][Ac6c]NVG[tBuAla]YC-NH2; thioether N-10) gave a pIC50 of 8.12.

As for `CSCC[C@@H]1NC(=O)CNC(=O)[C@H](C(C)C)NC(=O)[C@H](CC(N)=O)NC(=O)C2(CCCCC2)NC(=O)[C@H](Cc2ccc(OP(=O)(O)O)cc2)NC(=O)[C@H](CC(C)C)NC(=O)[C@H](C)NC(=O)CSC[C@@H](C(N)=O)NC(=O)[C@H](Cc2ccc(O)cc2)NC1=O` ({CH2CO}-AL[pY][Ac6c]NVGMYC-NH2; thioether N-10), the pIC50 was 8.42.

Turning to `CSCC[C@@H]1NC(=O)CNC(=O)[C@H](C(C)C)NC(=O)[C@H](CC(N)=O)NC(=O)C2(CCCCC2)NC(=O)[C@H](Cc2ccc(OP(=O)(O)O)cc2)NC(=O)[C@H](CC(C)C)NC(=O)CCNC(=O)CSC[C@@H](C(N)=O)NC(=O)[C@H](Cc2ccc(O)cc2)NC1=O` (L[pY][Ac6c]NVGMYC-NH2; linker N-9 via X1), the pIC50 was 7.68.

`CSCC[C@@H]1NC(=O)CNC(=O)[C@H](C(C)C)NC(=O)[C@H](CC(N)=O)NC(=O)[C@H](CCC(=O)O)NC(=O)[C@H](Cc2ccc(OP(=O)(O)O)cc2)NC(=O)[C@H](CC(C)C)NC(=O)CNC(=O)CSC[C@@H](C(N)=O)NC(=O)[C@H](Cc2ccc(O)cc2)NC1=O` ({CH2CO}-GL[pY]ENVGMYC-NH2; thioether N-10): the pIC50 is 7.50.

`CSCC[C@@H]1NC(=O)CNC(=O)[C@H](C(C)C)NC(=O)[C@H](CC(N)=O)NC(=O)[C@H](CCC(=O)O)NC(=O)[C@H](Cc2ccc(OP(=O)(O)O)cc2)NC(=O)[C@H](CC(C)C)NC(=O)CCNC(=O)CSC[C@@H](C(N)=O)NC(=O)[C@H](Cc2ccc(O)cc2)NC1=O` (L[pY]ENVGMYC-NH2; linker N-9 via X1) gave a pIC50 of 8.08.

Take `CC(C)C[C@@H]1NC(=O)[C@H](C)NC(=O)CSC[C@@H](C(N)=O)NC(=O)[C@H](Cc2ccc(O)cc2)NC(=O)[C@H](C)NC(=O)CNC(=O)[C@H](C(C)C)NC(=O)[C@H](CC(N)=O)NC(=O)C2(CCCCC2)NC(=O)[C@H](Cc2ccc(OP(=O)(O)O)cc2)NC1=O` ({CH2CO}-AL[pY][Ac6c]NVGAYC-NH2; thioether N-10): the pIC50 was 7.88.
